Consider 4 compounds from patent publication US20110301245A1, “(R)-2-(3,4-DIMETHOXYPHENOL)-2-ISOPROPYL-6-AZAHEPTANITRIL FORMULAITONS, ANDTHE USE OF SUCH FORMULATIONS IN THE TREATMENT OF CONDITIONS MEDIATED BY THE SEROTONIN TRANSPORTER” (AGI THERAPEUTICS, PLC, priority 2010, published 2011).

Data set [1] has as its system male wistar rats with Monocrotaline-induced PAH. Briefly: Inhibition of PAH development, monocrotaline-induced pulmonary arterial hypertension. In kind it is in vivo, rat. As to conditions: Mct 60 mg/kg sc, 5 mg/kg IP daily for 21 days. The procedure:
Experimental pulmonary arterial hypertension (PAH) was induced in male wistar rats (Charles River Laboratories) weighing between 250 and 300 g by subcutaneous injection of 60 mg/kg Monocrotaline (Met) on Day 1. The Mct (Sigma Aldrich) was dissolved in 1N HCl at a concentration of 300 mg/ml as per M. Rey et al., Current Protocols in Pharmacology, 5.56.1-5.56.11, September 2009, which document is incorporated by reference herein in its entirety. Mct was then neutralized by adding 1N NaOH and diluted with sterile distilled water to a final concentration of 20 mg/ml. An injection volume of 3 ml/kg was used to achieve the 60 mg/kg dose.
A total of 44 rats were injected as follows: 15 rats were injected subcutaneously with Mct (untreated PAH controls), 15 rats were injected subcutaneously with Mct followed by daily IP injection with 5 mg/kg (R)-2-(3,4-dimethoxyphenol)-2-isopropyl-6-azaheptanitril for 21 days (R-D617 treated group), and 14 rats were injected subcutaneously with neutralized solvent having no Mct (non-PAH controls (sham)).
All animals were then housed (allowed food and water ad lib). The animals were anaesthetized 21 days after injection, and pulmonary arterial pressure was measured and expressed as mean pulmonary arterial pressure (mPAP mmHg). A terminal sample was also obtained and used to obtain terminal drug concentrations. […]

The next data set concerns the target T1, 5-HT transporter (h) (Homo sapiens, UniProt P31645).
T1 construct: expressed in transfected cells; host or cells: CHO cells
Description: 5-HT transporter (h) antagonist radioligand binding assay, human recombinant CHO cells, [3H]imipramine. The text has this: For its discussion of the assay method, Tatsumi et al. is incorporated herein by reference in its entirety.
The specific ligand binding to the receptors is defined as the difference between the total binding and the nonspecific binding determined in the presence of an excess of unlabelled ligand.
The results are expressed as a percent of control specific binding ((measured specific binding/control specific binding)×100) and as a percent inhibition of control specific binding (100−((measured specific binding/control specific binding)×100)) obtained in the presence of (R)-2-(3,4-dimethoxyphenol)-2-isopropyl-6-azaheptanitril.
The IC50 values (concentration causing a half-maximal inhibition of control specific binding) and Hill coefficients (nH) were determined by non-linear regression analysis of the competition curves generated with mean replicate values using Hill equation curve fitting (Y=D+[(A−D)/(1+(C/C50)^nH)], where Y=specific binding, D=minimum specific binding, A=maximum specific binding, C=compound concentration, C50=IC50, and nH=slope factor).
The inhibition constants (Ki) were calculated using the Cheng Prusoff equation (Ki=IC50/(1+(L/KD)), where L=concentration of radioligand in the assay, and KD=affinity of the radioligand for the receptor).

The nature of data set [2]: Terminal plasma drug concentrations by HPLC in the PAH study. In kind it is in vivo. As to conditions: rat, 5 mg/kg IP daily for 21 days. The procedure:
All animals were then housed (allowed food and water ad lib). The animals were anaesthetized 21 days after injection, and pulmonary arterial pressure was measured and expressed as mean pulmonary arterial pressure (mPAP mmHg). A terminal sample was also obtained and used to obtain terminal drug concentrations. Following exsanguination, cardiac tissues were excised and used to assess the wet weight of the right cardiac ventricle.

For data set [3], the system named is other receptors tested, including calcium channels. Description: Single high concentration test on other receptors (data not included). In kind it is binding. To be noted: single high concentration 1×10^−5M.
The target of data set [4] is T2, 5-HT uptake (rat brain synaptosomes) (Rattus norvegicus, UniProt P31652).
T2 construct: from tissue; host or cells: rat brain synaptosomes
Briefly: In vitro 5-HT uptake assay using rat brain synaptosomes. In kind it is biochemical. As to conditions: for % of Control Values, 1st / % of Control Values, 2nd / % of Control Values, Mean: Table 2-2. The procedure: Briefly, the uptake assay was performed using rat brain synaptosomes according to the method generally described in Perovic and Muller, Arzneim-Forsch. […] For its disclosure of the above-noted assay, Perovic and Muller is incorporated herein by reference in its entirety.
The results are expressed as a percent of control specific activity ((measured specific activity/control specific activity)×100) obtained in the presence of (R)-2-(3,4-dimethoxyphenol)-2-isopropyl-6-azaheptanitril.
The IC50 values (concentration causing a half-maximal inhibition of control specific activity) and Hill coefficients (nH) were determined by non-linear regression analysis of the inhibition curves generated with mean replicate values using Hill equation curve fitting (Y=D+[(A−D)/(1+(C/C50)^nH)], where Y=specific activity, D=minimum specific activity, A=maximum specific activity, C=compound concentration, C50=IC50 and nH=slope factor).

For data set [5] the following is noted: % of the potency of verapamil; cited from earlier work.
The subject of a further data set is CYP. As to conditions: prior non-clinical studies; cited from earlier work.
In a further data set the target is p-glycoprotein (Homo sapiens, UniProt P08183). To be noted: prior non-clinical studies; cited from earlier work.
A further data set concerns the target HERG (Homo sapiens, UniProt Q12809). To be noted: prior non-clinical studies; cited from earlier work.

Structures are written as SMILES. “And” between values parts separate entries of the source, which are not always exact repeats. Equal values may be shown once. Read-outs that look alike come from different tables or passages of the source.

T1 sequence (P31645 whole entry): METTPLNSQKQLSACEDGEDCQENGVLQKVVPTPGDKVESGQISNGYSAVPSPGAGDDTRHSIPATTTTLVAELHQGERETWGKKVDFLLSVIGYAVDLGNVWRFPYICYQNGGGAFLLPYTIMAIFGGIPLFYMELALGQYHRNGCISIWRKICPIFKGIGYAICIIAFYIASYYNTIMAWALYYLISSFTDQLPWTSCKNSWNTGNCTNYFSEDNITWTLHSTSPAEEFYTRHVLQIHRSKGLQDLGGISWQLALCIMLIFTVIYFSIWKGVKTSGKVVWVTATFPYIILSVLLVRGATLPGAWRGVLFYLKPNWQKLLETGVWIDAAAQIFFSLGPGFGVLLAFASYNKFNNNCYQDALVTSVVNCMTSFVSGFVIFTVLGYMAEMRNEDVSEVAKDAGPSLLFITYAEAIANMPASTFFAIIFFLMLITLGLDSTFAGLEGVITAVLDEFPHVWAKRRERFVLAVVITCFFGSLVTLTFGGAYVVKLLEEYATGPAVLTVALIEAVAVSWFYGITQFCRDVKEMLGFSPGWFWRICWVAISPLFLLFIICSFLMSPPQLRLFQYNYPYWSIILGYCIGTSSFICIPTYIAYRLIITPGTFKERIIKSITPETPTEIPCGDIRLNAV
T2 sequence (P31652 whole entry): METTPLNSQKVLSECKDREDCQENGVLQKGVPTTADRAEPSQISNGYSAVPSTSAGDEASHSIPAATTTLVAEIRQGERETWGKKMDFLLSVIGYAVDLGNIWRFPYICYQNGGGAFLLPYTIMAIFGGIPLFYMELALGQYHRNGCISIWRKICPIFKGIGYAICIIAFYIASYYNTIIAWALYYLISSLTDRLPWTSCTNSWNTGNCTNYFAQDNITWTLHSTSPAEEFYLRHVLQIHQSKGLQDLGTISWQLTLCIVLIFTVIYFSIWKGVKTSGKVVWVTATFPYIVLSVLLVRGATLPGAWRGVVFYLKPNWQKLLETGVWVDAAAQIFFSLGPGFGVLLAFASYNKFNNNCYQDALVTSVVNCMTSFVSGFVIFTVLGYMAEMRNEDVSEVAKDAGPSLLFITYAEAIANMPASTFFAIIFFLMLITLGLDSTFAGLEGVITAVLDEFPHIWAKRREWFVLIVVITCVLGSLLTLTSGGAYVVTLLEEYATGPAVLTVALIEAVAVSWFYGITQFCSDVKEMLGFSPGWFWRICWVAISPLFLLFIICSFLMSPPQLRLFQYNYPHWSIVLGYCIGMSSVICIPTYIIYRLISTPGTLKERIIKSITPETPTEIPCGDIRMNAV
Chain of HERG (Q12809 whole entry): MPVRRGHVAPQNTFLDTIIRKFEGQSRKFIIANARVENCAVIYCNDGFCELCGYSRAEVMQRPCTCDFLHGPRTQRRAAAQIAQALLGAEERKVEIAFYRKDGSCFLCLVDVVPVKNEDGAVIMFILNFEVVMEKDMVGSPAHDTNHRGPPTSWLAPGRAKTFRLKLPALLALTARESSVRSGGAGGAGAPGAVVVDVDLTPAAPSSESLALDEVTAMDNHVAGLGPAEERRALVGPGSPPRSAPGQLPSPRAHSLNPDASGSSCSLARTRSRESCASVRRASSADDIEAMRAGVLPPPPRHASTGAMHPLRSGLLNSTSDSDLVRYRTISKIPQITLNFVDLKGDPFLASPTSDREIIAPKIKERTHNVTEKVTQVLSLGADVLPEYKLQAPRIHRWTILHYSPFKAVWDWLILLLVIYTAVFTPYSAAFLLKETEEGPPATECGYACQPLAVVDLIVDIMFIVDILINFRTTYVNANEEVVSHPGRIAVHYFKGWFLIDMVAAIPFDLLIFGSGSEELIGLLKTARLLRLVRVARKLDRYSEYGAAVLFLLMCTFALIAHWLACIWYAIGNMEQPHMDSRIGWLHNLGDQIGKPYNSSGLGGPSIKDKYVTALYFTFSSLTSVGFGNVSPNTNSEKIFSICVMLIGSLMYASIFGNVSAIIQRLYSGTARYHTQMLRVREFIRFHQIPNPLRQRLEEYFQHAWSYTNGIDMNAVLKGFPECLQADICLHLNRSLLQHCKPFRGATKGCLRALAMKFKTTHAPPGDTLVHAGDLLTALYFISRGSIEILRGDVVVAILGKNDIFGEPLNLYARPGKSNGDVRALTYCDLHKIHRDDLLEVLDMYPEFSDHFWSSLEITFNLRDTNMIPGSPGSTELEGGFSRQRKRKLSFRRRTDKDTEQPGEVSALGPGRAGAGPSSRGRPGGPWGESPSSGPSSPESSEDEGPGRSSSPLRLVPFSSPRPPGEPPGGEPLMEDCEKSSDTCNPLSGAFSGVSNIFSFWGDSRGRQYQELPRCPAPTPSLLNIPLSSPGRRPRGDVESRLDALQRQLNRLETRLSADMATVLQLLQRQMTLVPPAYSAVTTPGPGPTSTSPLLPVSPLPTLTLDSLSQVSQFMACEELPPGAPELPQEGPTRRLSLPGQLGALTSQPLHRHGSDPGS
Chain of p-glycoprotein (P08183 whole entry): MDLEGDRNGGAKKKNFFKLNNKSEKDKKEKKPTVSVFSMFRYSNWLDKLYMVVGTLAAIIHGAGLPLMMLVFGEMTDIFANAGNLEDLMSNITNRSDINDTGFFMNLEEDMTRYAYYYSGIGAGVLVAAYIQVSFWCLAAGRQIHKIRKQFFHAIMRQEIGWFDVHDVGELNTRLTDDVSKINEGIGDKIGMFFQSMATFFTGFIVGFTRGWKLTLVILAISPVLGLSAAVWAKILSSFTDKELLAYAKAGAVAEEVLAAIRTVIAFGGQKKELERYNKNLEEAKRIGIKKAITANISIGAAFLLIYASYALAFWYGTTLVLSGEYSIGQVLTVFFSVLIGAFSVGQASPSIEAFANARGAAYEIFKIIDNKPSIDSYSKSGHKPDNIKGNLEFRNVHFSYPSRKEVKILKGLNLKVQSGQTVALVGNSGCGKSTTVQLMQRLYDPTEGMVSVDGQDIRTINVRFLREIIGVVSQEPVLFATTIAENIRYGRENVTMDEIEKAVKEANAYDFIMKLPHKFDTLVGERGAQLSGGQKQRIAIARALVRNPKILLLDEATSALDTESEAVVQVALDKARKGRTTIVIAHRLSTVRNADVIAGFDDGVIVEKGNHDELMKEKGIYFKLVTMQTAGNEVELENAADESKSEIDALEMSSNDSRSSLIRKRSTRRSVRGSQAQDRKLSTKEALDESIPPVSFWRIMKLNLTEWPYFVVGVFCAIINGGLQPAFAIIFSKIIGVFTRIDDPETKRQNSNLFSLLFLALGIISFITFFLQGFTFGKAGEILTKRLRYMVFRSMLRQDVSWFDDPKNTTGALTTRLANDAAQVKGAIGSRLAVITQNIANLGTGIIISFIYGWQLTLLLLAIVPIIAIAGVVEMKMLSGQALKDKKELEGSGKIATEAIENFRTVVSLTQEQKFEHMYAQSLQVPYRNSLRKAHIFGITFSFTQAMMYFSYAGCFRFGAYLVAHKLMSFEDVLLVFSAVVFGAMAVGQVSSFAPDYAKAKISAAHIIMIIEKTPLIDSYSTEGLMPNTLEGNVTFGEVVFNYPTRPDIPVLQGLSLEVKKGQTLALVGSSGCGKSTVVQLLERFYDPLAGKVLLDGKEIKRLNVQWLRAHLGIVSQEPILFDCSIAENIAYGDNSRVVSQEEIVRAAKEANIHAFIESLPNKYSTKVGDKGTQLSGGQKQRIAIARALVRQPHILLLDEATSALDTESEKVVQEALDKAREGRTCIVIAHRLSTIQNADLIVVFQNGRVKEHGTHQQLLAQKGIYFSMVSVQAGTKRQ

The term Ki denotes a measure of affinity in units of concentration, obtained from inhibition or displacement. One may read the IC50 as the concentration that inhibits the measured activity by half. For orientation: inhibition means the relative decrease from the control value, in per cent. Take `CNCCC[C@](C#N)(c1ccc(OC)c(OC)c1)C(C)C` [(R)-2-(3,4-dimethoxyphenol)-2-isopropyl-6-azaheptanitril]: the “mPAP (Mean +/− SEM)” value in [1] (measured 21 days after injection, untreated PAH control 36.0, sham 14.7) is 30.0 +/− 2.5 mmHg. For the same compound, the “Right Ventricle Weight (Mean +/− SEM)” value in [1] (wet weight, untreated PAH control 317.9, sham 167.4) is listed as 288.7 +/− 13.4. For the same compound, the “% Inhibition of Control Specific Binding” value at 5-HT transporter (h) (Table 1-1, test concentration 1.0E−05 M) was 100%. In addition, the “% of Control Specific Binding, 1st” value on 5-HT transporter (h) (Table 1-2, 1.0E−05 M) was −0.6%; at 5-HT transporter (h) (Table 1-5, 1.0E−05 M), 0.5%; at 5-HT transporter (h) (Table 1-5, 1.0E−06 M), 5.9%; at 5-HT transporter (h) (Table 1-5, 1.0E−07 M), 36.5%; on 5-HT transporter (h) (Table 1-5, 1.0E−08 M) it was 83.3%; at 5-HT transporter (h) (Table 1-5, 3.0E−07 M), 15.3%. In addition, the “% of Control Specific Binding, 1st” value at 5-HT transporter (h) (Table 1-5, 3.0E−08 M) stood at 66.6%; on 5-HT transporter (h) (Table 1-5, 3.0E−09 M), 101.5%; at 5-HT transporter (h) (Table 1-5, 3.0E−10 M), 104.1%. The “% of Control Specific Binding, 2nd” value turned out to be 0.8% on 5-HT transporter (h) (Table 1-2, 1.0E−05 M); 0.2% at 5-HT transporter (h) (Table 1-5, 1.0E−05 M); 3.7% at 5-HT transporter (h) (Table 1-5, 1.0E−06 M); 32.5% on 5-HT transporter (h) (Table 1-5, 1.0E−07 M); 84.8% at 5-HT transporter (h) (Table 1-5, 1.0E−08 M); 13.1% at 5-HT transporter (h) (Table 1-5, 3.0E−07 M). For the same compound, the “% of Control Specific Binding, 2nd” value on 5-HT transporter (h) (Table 1-5, 3.0E−08 M) is 58.0%; on 5-HT transporter (h) (Table 1-5, 3.0E−09 M), 88.4%; on 5-HT transporter (h) (Table 1-5, 3.0E−10 M), 102.0%. Besides, the “% of Control Specific Binding, Mean” value is 0.1% on 5-HT transporter (h) (Table 1-2, 1.0E−05 M); 0.3% at 5-HT transporter (h) (Table 1-5, 1.0E−05 M); 4.8% on 5-HT transporter (h) (Table 1-5, 1.0E−06 M); 34.5% on 5-HT transporter (h) (Table 1-5, 1.0E−07 M); 84.0% at 5-HT transporter (h) (Table 1-5, 1.0E−08 M); 14.2% on 5-HT transporter (h) (Table 1-5, 3.0E−07 M). Further, the “% of Control Specific Binding, Mean” value on 5-HT transporter (h) (Table 1-5, 3.0E−08 M) stood at 62.3%; on 5-HT transporter (h) (Table 1-5, 3.0E−09 M), 94.9%; at 5-HT transporter (h) (Table 1-5, 3.0E−10 M) it was 103.1%. On 5-HT transporter (h) (Table 1-4), the “nH (Hill coefficient)” value stood at 1.0. In addition, the inhibitory constant (Ki) on 5-HT transporter (h) (Table 1-4, Cheng Prusoff) worked out at 22 nM. Also, the IC50 at 5-HT transporter (h) (read-out: IC50 for inhibition of binding at the serotonin transporter) came out at 47 nM; in data set [4] (Table 2-1, 5-HT uptake), 240 nM. Besides, the “inhibition of the serotonin transporter” value on 5-HT transporter (h) (single high concentration 1×10^−5M) was determined as 100%. Further, the “mean terminal plasma concentration of (R)-2-(3,4-dimethoxyphenol)-2-isopropyl-6-azaheptanitril” value in data set [2] (R-D617 treated group) was found to be 18.5 ng/mL. Also, the “terminal plasma concentration of R-verapamil after R-D617 treatment” value in data set [2] (lower limit of quantification 1 ng/ml) was less than 1 ng/mL. In data set [2] (result in words), the “R-verapamil measured in terminal plasma of the R-D617 treated group” value is reported as “no quantifiable R-verapamil”. In addition, the “inhibition at the majority of the other receptors tested” value in [3] is on record as less than 75%. Besides, the “% of Control Values, 1st” value is recorded as 1.0% in data set [4] (1.0E−05 M); 22.1% in data set [4] (1.0E−06 M); 79.8% in [4] (1.0E−07 M); 101.7% in data set [4] (1.0E−08 M); 47.8% in data set [4] (3.0E−07 M); 108.1% in data set [4] (3.0E−08 M). Also, the “% of Control Values, 1st” value in data set [4] (3.0E−09 M) was 100.2%; in data set [4] (3.0E−10 M), 113.5%. The “% of Control Values, 2nd” value in data set [4] (1.0E−05 M) is 5.2%; in [4] (1.0E−06 M), 21.1%; in data set [4] (1.0E−07 M), 81.9%; in data set [4] (1.0E−08 M) it was 94.0%; in data set [4] (3.0E−07 M), 44.9%; in data set [4] (3.0E−08 M), 82.8%. The “% of Control Values, 2nd” value in data set [4] (3.0E−09 M) worked out at 113.4%; in data set [4] (3.0E−10 M), 113.3%. Moreover, the “% of Control Values, Mean” value was 3.1% in data set [4] (1.0E−05 M); 21.6% in data set [4] (1.0E−06 M); 80.8% in data set [4] (1.0E−07 M); 97.9% in data set [4] (1.0E−08 M); 46.3% in data set [4] (3.0E−07 M); 95.4% in data set [4] (3.0E−08 M). Moreover, the figures for the “% of Control Values, Mean” value in [4] (3.0E−09 M) and in data set [4] (3.0E−10 M) were 106.8% and 113.4%, respectively.

Take `CNCCCC(C#N)(c1ccc(OC)c(OC)c1)C(C)C` [D-617, 2-(3,4-dimethoxyphenol)-2-isopropyl-6-azaheptanitril]: in data set [5], the “cardiovascular potency compared with verapamil” value was 2.6%. Besides, the “CYP-mediated metabolism: substrate / inhibitor” value in the data set with CYP is recorded as “substrate for but not a potent inhibitor of”. Also, on p-glycoprotein, the “p-glycoprotein transport: substrate / inhibitor” value is listed as “substrate for, but not an inhibitor of”. In addition, the “block of HERG-induced currents” value on HERG is recorded as “does not block”.

`CN(C)CCCN1c2ccccc2CCc2ccccc21` [imipramine, reference compound]: the “nH (Hill coefficient)” value on 5-HT transporter (h) is 0.9 and 1.2.

For `COc1ccc(CCNCCCC(C#N)(c2ccc(OC)c(OC)c2)C(C)C)cc1OC` (stereo not drawn) [nor-verapamil], the “cardiovascular potency compared with verapamil” value in [5] was 21.9%.
